{"source": "patent US6875451B2", "about": "“Compositions and methods for the treatment of primary and metastatic neoplastic diseases using arsenic compounds” (PolaRx Biopharmaceuticals Inc., priority 1997, dated 2005)", "key": {"[1]": {"system": "NB4 cells, an APL cell line", "details": "in vitro; cited from earlier work"}, "NCI-H226": {"system": "NCI-H226", "assay": "SRB growth assay, 2 days exposure, non-small cell lung cancer", "assay_type": "cell-based", "experimental": "(§1) Arsenic trioxide (1 mg/ml, 10 mg/ampoule, manufactured by Taylor Pharmaceuticals, Decatur, Ill.) was tested at five concentrations each at 10-fold dilutions, i.e., 10^−5, 10^−6, 10^−7, 10^−8 and 10^−9 μg/ml.\n(§2) The in vitro tests were performed by incubating the test cells in the presence of the indicated concentration of arsenic trioxide under standard culture conditions for a designated period of time, which is followed by a sulforhodamine B (SRB) protein assay to estimate cell viability or growth. The cell lines are organized into subpanels according to the origin of the cell lines, e.g., leukemia, breast cancer, etc. A description of the cell lines and method of testing is described in Monk et al. (1997, Anticancer Drug Des. 12:533-41) and Weinstein et al., (1997, Science 275:343-9), which are incorporated herein in their entirety.\n(§3) The measurement of an effect is expressed in Percentage Growth (PG). The measured effect of the compound on a cell line is calculated according to one or the other of the following two expressions: If (Mean ODtest−Mean ODzero)≧0. then PG=100×(Mean ODtest−Mean ODzero)/(Mean ODctrl−Mean ODzero) If (Mean ODtest−Mean ODzero)<0. then PG=100×(Mean ODtest−Mean ODzero)/(Mean ODzero where: • Mean ODzero=the average of optical density measurements of SRB-derived color just before exposure of cells to the test compounds; • Mean ODtest=the average of optical density measurements of SRB-derived color after exposure of cells to the test compound for a designated period of time; and • Mean ODctrl=the average of optical density measurements of SRB-derived color after with no exposure of cells to the test compound for a designated period of time\n(§4) The first two columns describe the subpanel (e.g., leukemia) and cell line (e.g., CCRF-CEM) involved. The next two columns list the Mean ODzero and Mean ODctrl; the next five columns list the Mean ODtest for each of five different concentrations. Each concentration is expressed as the log10 (molar or μg/ml). The next five columns list the calculated PGs for each concentration. The response parameters GI50, TGI and LC50 are interpolated values representing the concentrations at which the PG is +50, 0, and −50, respectively. Sometimes these response parameters cannot be obtained by interpolation. If, for instance, all of the PGs in a given row exceed +50, then none of the three parameters can be obtained by interpolation. In such a case, the value given for each response parameter is the highest concentration tested and is preceded by a “>” sign. This practice is extended similarly to the other possible situations where a response parameter cannot be obtained by interpolation.\n(§5) In the first set, the cells from 56 different cancer cell lines were exposed to five concentrations of arsenic trioxide continuously for two days prior to performing the SRB assay. In the second set, the cells from 50 different cell lines (a subset of the first 56 cell lines, plus the renal cancer cell line 786-0) were exposed continuously for six days prior to the SRB assay."}, "NCI-H522": {"system": "NCI-H522", "assay": "SRB growth assay, 2 days exposure, non-small cell lung cancer", "assay_type": "cell-based", "experimental": "as §1, §2, §3, §4, §5"}, "NCI-H460": {"system": "NCI-H460", "assay": "SRB growth assay, 2 days exposure, non-small cell lung cancer", "assay_type": "cell-based", "experimental": "as §1, §2, §3, §4, §5"}, "NCI-H23": {"system": "NCI-H23", "assay": "SRB growth assay, 2 days exposure, non-small cell lung cancer", "assay_type": "cell-based", "experimental": "as §1, §2, §3, §4, §5"}, "EKVX": {"system": "EKVX", "assay": "SRB growth assay, 2 days exposure, non-small cell lung cancer", "assay_type": "cell-based", "experimental": "as §1, §2, §3, §4, §5"}, "A549/ATCC": {"system": "A549/ATCC", "assay": "SRB growth assay, 2 days exposure, non-small cell lung cancer", "assay_type": "cell-based", "experimental": "as §1, §2, §3, §4, §5"}, "NCI-8322M": {"system": "NCI-8322M", "assay": "SRB growth assay, 2 days exposure, non-small cell lung cancer", "assay_type": "cell-based", "experimental": "as §1, §2, §3, §4, §5"}, "HOP-62": {"system": "HOP-62", "assay": "SRB growth assay, 2 days exposure, non-small cell lung cancer", "assay_type": "cell-based", "experimental": "as §1, §2, §3, §4, §5"}, "HOP-92": {"system": "HOP-92", "assay": "SRB growth assay, 2 days exposure, non-small cell lung cancer", "assay_type": "cell-based", "experimental": "as §1, §2, §3, §4, §5"}, "50 different cell lines": {"system": "50 different cell lines", "assay": "NCI cancer cell line panel, SRB assay, second set, 6 days exposure (whole panel, mean graph)", "assay_type": "cell-based", "experimental": "as §1, §2\nThe measurement of an effect is expressed in Percentage Growth (PG). […]\nThe first two columns describe the subpanel (e.g., leukemia) and cell line (e.g., CCRF-CEM) involved. […] Each concentration is expressed as the log10 (molar or μg/ml). The next five columns list the calculated PGs for each concentration. […]"}}, "data": [{"substance": "arsenic trioxide", "values": [{"measurement": "apoptosis (programmed cell death)", "setting": "[1]", "result": "induced apoptosis"}, {"measurement": "TGI", "setting": "NCI-H226", "result": ">0.0126", "unit": "ng/mL"}, {"measurement": "Percent Growth", "setting": "NCI-H226; log10 conc −4.9", "result": 92, "unit": "%"}, {"measurement": "Percent Growth", "setting": "NCI-H226; log10 conc −5.9", "result": 109, "unit": "%"}, {"measurement": "Percent Growth", "setting": "NCI-H226; log10 conc −6.9", "result": 109, "unit": "%"}, {"measurement": "Percent Growth", "setting": "NCI-H226; log10 conc −7.9", "result": 96, "unit": "%"}, {"measurement": "Percent Growth", "setting": "NCI-H226; log10 conc −8.9", "result": 109, "unit": "%"}, {"measurement": "TGI", "setting": "NCI-H522", "result": 0.00708, "unit": "ng/mL"}, {"measurement": "Percent Growth", "setting": "NCI-H522; log10 conc −4.9", "result": "−21", "unit": "%"}, {"measurement": "Percent Growth", "setting": "NCI-H522; log10 conc −5.9", "result": 63, "unit": "%"}, {"measurement": "Percent Growth", "setting": "NCI-H522; log10 conc −6.9", "result": 108, "unit": "%"}, {"measurement": "Percent Growth", "setting": "NCI-H522; log10 conc −7.9", "result": 100, "unit": "%"}, {"measurement": "Percent Growth", "setting": "NCI-H522; log10 conc −8.9", "result": 129, "unit": "%"}, {"measurement": "TGI", "setting": "NCI-H460", "result": ">0.0126", "unit": "ng/mL"}, {"measurement": "Percent Growth", "setting": "NCI-H460; log10 conc −4.9", "result": 49, "unit": "%"}, {"measurement": "Percent Growth", "setting": "NCI-H460; log10 conc −5.9", "result": 92, "unit": "%"}, {"measurement": "Percent Growth", "setting": "NCI-H460; log10 conc −6.9", "result": 100, "unit": "%"}, {"measurement": "Percent Growth", "setting": "NCI-H460; log10 conc −7.9", "result": 95, "unit": "%"}, {"measurement": "Percent Growth", "setting": "NCI-H460; log10 conc −8.9", "result": 89, "unit": "%"}, {"measurement": "TGI", "setting": "NCI-H23", "result": ">0.0126", "unit": "ng/mL"}, {"measurement": "Percent Growth", "setting": "NCI-H23; log10 conc −4.9", "result": 58, "unit": "%"}, {"measurement": "Percent Growth", "setting": "NCI-H23; log10 conc −5.9", "result": 101, "unit": "%"}, {"measurement": "Percent Growth", "setting": "NCI-H23; log10 conc −6.9", "result": 127, "unit": "%"}, {"measurement": "Percent Growth", "setting": "NCI-H23; log10 conc −7.9", "result": 121, "unit": "%"}, {"measurement": "Percent Growth", "setting": "NCI-H23; log10 conc −8.9", "result": 115, "unit": "%"}, {"measurement": "TGI", "setting": "EKVX", "result": ">0.0126", "unit": "ng/mL"}, {"measurement": "Percent Growth", "setting": "EKVX; log10 conc −4.9", "result": 11, "unit": "%"}, {"measurement": "Percent Growth", "setting": "EKVX; log10 conc −5.9", "result": 130, "unit": "%"}, {"measurement": "Percent Growth", "setting": "EKVX; log10 conc −6.9", "result": 127, "unit": "%"}, {"measurement": "Percent Growth", "setting": "EKVX; log10 conc −7.9", "result": 129, "unit": "%"}, {"measurement": "Percent Growth", "setting": "EKVX; log10 conc −8.9", "result": 119, "unit": "%"}, {"measurement": "TGI", "setting": "A549/ATCC", "result": ">0.0126", "unit": "ng/mL"}, {"measurement": "Percent Growth", "setting": "A549/ATCC; log10 conc −4.9", "result": 69, "unit": "%"}, {"measurement": "Percent Growth", "setting": "A549/ATCC; log10 conc −5.9", "result": 108, "unit": "%"}, {"measurement": "Percent Growth", "setting": "A549/ATCC; log10 conc −6.9", "result": 100, "unit": "%"}, {"measurement": "Percent Growth", "setting": "A549/ATCC; log10 conc −7.9", "result": 102, "unit": "%"}, {"measurement": "Percent Growth", "setting": "A549/ATCC; log10 conc −8.9", "result": 100, "unit": "%"}, {"measurement": "TGI", "setting": "NCI-8322M", "result": ">0.0126", "unit": "ng/mL"}, {"measurement": "Percent Growth", "setting": "NCI-8322M; log10 conc −4.9", "result": 61, "unit": "%"}, {"measurement": "Percent Growth", "setting": "NCI-8322M; log10 conc −5.9", "result": 99, "unit": "%"}, {"measurement": "Percent Growth", "setting": "NCI-8322M; log10 conc −6.9", "result": 97, "unit": "%"}, {"measurement": "Percent Growth", "setting": "NCI-8322M; log10 conc −7.9", "result": 106, "unit": "%"}, {"measurement": "Percent Growth", "setting": "NCI-8322M; log10 conc −8.9", "result": 117, "unit": "%"}, {"measurement": "TGI", "setting": "HOP-62", "result": ">0.0126", "unit": "ng/mL"}, {"measurement": "Percent Growth", "setting": "HOP-62; log10 conc −4.9", "result": 35, "unit": "%"}, {"measurement": "Percent Growth", "setting": "HOP-62; log10 conc −5.9", "result": 97, "unit": "%"}, {"measurement": "Percent Growth", "setting": "HOP-62; log10 conc −6.9", "result": 100, "unit": "%"}, {"measurement": "Percent Growth", "setting": "HOP-62; log10 conc −7.9", "result": 99, "unit": "%"}, {"measurement": "Percent Growth", "setting": "HOP-62; log10 conc −8.9", "result": 97, "unit": "%"}, {"measurement": "TGI", "setting": "HOP-92", "result": ">0.0126", "unit": "ng/mL"}, {"measurement": "Percent Growth", "setting": "HOP-92; log10 conc −4.9", "result": 31, "unit": "%"}, {"measurement": "Percent Growth", "setting": "HOP-92; log10 conc −5.9", "result": 74, "unit": "%"}, {"measurement": "Percent Growth", "setting": "HOP-92; log10 conc −6.9", "result": 82, "unit": "%"}, {"measurement": "Percent Growth", "setting": "HOP-92; log10 conc −7.9", "result": 92, "unit": "%"}, {"measurement": "Percent Growth", "setting": "HOP-92; log10 conc −8.9", "result": 88, "unit": "%"}, {"measurement": "reducing cell growth", "setting": "50 different cell lines; second set of tests, all cell lines tested", "result": "effective in reducing cell growth against all the cell lines tested"}, {"measurement": "sensitivity at the various principal response parameters", "setting": "50 different cell lines; several melanoma cell lines", "result": "especially sensitive"}]}]}
